Where “and” joins values, the source holds several entries; their conditions need not be identical. Equal entries are not always repeated. Where two headings read alike, the source gives them in different places.
Experiments:
[1] = First-in-human SAD and MAD study, pharmacokinetics; format: in vivo
Procedure: A first-in-human study was conducted to evaluate the safety, tolerability and pharmacokinetics (PK) of single and multiple ascending doses (SAD and MAD) of oral Compound A.
In the SAD Phase, 32 healthy volunteers were randomized (3:1) to Compound A (5, 15, 20, 25 or 30 mg) or placebo. The study featured an adaptive design. A crossover food effect cohort (N=10) was also completed with single doses of 20 mg. A sub-set of 8 male subjects were also assessed with Transcranial Magnetic Stimulation (TMS) for effects on cortical excitability (see Examples 4 and 5).
Repeat doses of Compound A (15 mg QD) were evaluated in a fasted and fed state over 7 and 10 days, respectively. Repeat doses of Compound A (25 mg QD) were also evaluated in a fed state over 10 days.
Compound A was formulated as an immediate release capsule. Serial plasma PK samples were collected for all cohorts. Safety evaluations throughout the study included adverse event (AE) monitoring, clinical laboratory tests, vital signs, ECGs, physical examinations and Columbia-Suicide Severity Rating Scale.

[2] = test system: corticospinal excitability; experiment: TMS crossover study, TMS-EMG resting motor threshold (RMT); format: in vivo, human; conditions: for Resting Motor Threshold, post-dose change from baseline: individual subjects; for Resting Motor Threshold, post-dose change from baseline (Mean): mean of subjects
Procedure: PD assessments included resting state electroencephalogram (RS-EEG); TMS-EMG measurements including resting motor threshold (RMT), active motor threshold (AMT), and short-interval intracortical inhibition (SICI); and TMS-EEG measurements. All 20 subjects underwent TMS-EMG and TMS-EEG sessions prior to dosing on Days 1 and 7 and at 2 and 4 h after dosing. […] For the 6 h timepoint, RMT was performed for 16 subjects, and AMT, EEG resting state, and TMS-EEG was performed for 8 subjects. RMT and AMT values are reported as percentages of maximum stimulator output (% MSO). Drug-induced modulation of TMS-EMG parameters were evaluated over the 3 timepoints (2, 4, and 6 h) and for the timepoint with the highest drug exposure. Individual and averaged RMT values at baseline and change each timepoint for Compound A and placebo for all 20 subjects are presented in Table 18. […] In addition, RMT could not be registered for Subject 912 at 2 hours after Compound A intake.

[3] = test system: corticospinal excitability; experiment: TMS crossover study, TMS-EMG active motor threshold (AMT); format: in vivo, human; conditions: for Active Motor Threshold, post-dose change from baseline: individual subjects; for Active Motor Threshold, post-dose change from baseline / Active Motor Threshold, post-dose change from baseline (Mean): single 20 mg dose; for Active Motor Threshold, post-dose change from baseline (Mean): mean of subjects
Procedure: RMT and AMT values are reported as percentages of maximum stimulator output (% MSO). Drug-induced modulation of TMS-EMG parameters were evaluated over the 3 timepoints (2, 4, and 6 h) and for the timepoint with the highest drug exposure. AMT was recorded while subjects squeezed a manometer at 20% of each individual's maximum contraction force. […] AMT could not be registered for Subjects 912 and 940 at 2 hours after Compound A and placebo intake, respectively.

[4] = human, plasma, oral, 5 mg, SAD, 5 mg fasted, N=3, Mean ± SD
[5] = human, plasma, oral, 15 mg, MAD, 15 mg Fed, Day 1, N=6, mean
[6] = human, plasma, oral, 15 mg, MAD, 15 mg Fed, Day 10, N=6, mean
[7] = human, plasma, oral, 15 mg, MAD, 15 mg QD Fasted, Day 1, N=6, mean
[8] = human, plasma, oral, 15 mg, MAD, 15 mg QD Fasted, Day 7, N=6, mean
[9] = human, plasma, oral, 15 mg, SAD, 15 mg fasted, N=3, Mean ± SD
[10] = human, plasma, oral, 20 mg, SAD, 20 mg fasted, N=6, Mean ± SD
[11] = human, plasma, oral, 25 mg, MAD, 25 mg QD Fed, Day 1, N=6, mean
[12] = human, plasma, oral, 25 mg, MAD, 25 mg QD Fed, Day 10, N=6, mean
[13] = human, plasma, oral, 25 mg, SAD, 25 mg fed standard breakfast, N=6, Mean ± SD
[14] = human, plasma, oral, 30 mg, SAD, 30 mg fasted, N=6, Mean ± SD
[15] = single 20 mg dose, 2 h post-dose
[16] = single 20 mg dose, 4 h post-dose
[17] = single 20 mg dose, 6 h post-dose

Cc1cc(N2CCc3cc(F)ccc3C2)cc(C)c1NC(=O)CC(C)(C)C [Compound A, N-[4-(6-fluoro-3,4-dihydro-1H-isoquinolin-2-yl)-2,6-dimethylphenyl]-3,3-dimethylbutanamide]
absorption enhanced by food, AUCinf ([1]; crossover food effect cohort, 20 mg): ~1.8 fold
dose proportionality of exposure ([1]; fasted state): less than dose-proportional exposure
Cmax [1, 4]: 7.13 ± 6.12 ng/mL
Tmax [1, 4]: 3.17 ± 2.47 h
AUC(0-t) ([1]; human, plasma, oral, 5 mg, SAD, 5 mg fasted, N=3, Mean ± SD, read-out: AUC0-24): 74.6 ± 50.5 ng·h/mL
AUC(0-t) ([1]; human, plasma, oral, 5 mg, SAD, 5 mg fasted, N=3, tLast 32 h, Mean ± SD, read-out: AUC0-t): 91.3 ± 54.2 ng·h/mL
Cmax [1, 5]: 35.9 ng/mL
Tmax [1, 5]: 4.37 h
AUC(0-t) ([1]; human, plasma, oral, 15 mg, MAD, 15 mg Fed, Day 1, N=6, mean, read-out: AUC0-24): 353 ng·h/mL
Cmax [1, 6]: 60.8 ng/mL
Tmax [1, 6]: 3.69 h
AUC(0-t) ([1]; human, plasma, oral, 15 mg, MAD, 15 mg Fed, Day 10, N=6, mean, read-out: AUC0-24): 1020 ng·h/mL
AUC(0-t) ([1]; human, plasma, oral, 15 mg, MAD, 15 mg Fed, Day 10, N=6, mean, read-out: AUC0-t): 4950 ng·h/mL
Cmax [1, 7]: 10.5 ng/mL
Tmax [1, 7]: 2.68 h
AUC(0-t) ([1]; human, plasma, oral, 15 mg, MAD, 15 mg QD Fasted, Day 1, N=6, mean, read-out: AUC0-24): 125 ng·h/mL
Cmax [1, 8]: 45.1 ng/mL
Tmax [1, 8]: 2.69 h
AUC(0-t) ([1]; human, plasma, oral, 15 mg, MAD, 15 mg QD Fasted, Day 7, N=6, mean, read-out: AUC0-24): 757 ng·h/mL
AUC(0-t) ([1]; human, plasma, oral, 15 mg, MAD, 15 mg QD Fasted, Day 7, N=6, mean, read-out: AUC0-t): 4260 ng·h/mL
Cmax [1, 9]: 27.3 ± 11.1 ng/mL
Tmax [1, 9]: 4.5 ± 2.6 h
AUC(0-t) ([1]; human, plasma, oral, 15 mg, SAD, 15 mg fasted, N=3, Mean ± SD, read-out: AUC0-24): 328 ± 141 ng·h/mL
AUC(0-t) ([1]; human, plasma, oral, 15 mg, SAD, 15 mg fasted, N=3, tLast 32 h, Mean ± SD, read-out: AUC0-t): 397 ± 166 ng·h/mL
Cmax [1, 10]: 31.5 ± 21.1 ng/mL
Tmax [1, 10]: 3.69 ± 2.05 h
AUC(0-t) ([1]; human, plasma, oral, 20 mg, SAD, 20 mg fasted, N=6, Mean ± SD, read-out: AUC0-24): 376 ± 220 ng·h/mL
AUC(0-t) ([1]; human, plasma, oral, 20 mg, SAD, 20 mg fasted, N=6, tLast 72 h, Mean ± SD, read-out: AUC0-t): 709 ± 337 ng·h/mL
Cmax [1, 11]: 49.6 ng/mL
Tmax [1, 11]: 4.38 h
AUC(0-t) ([1]; human, plasma, oral, 25 mg, MAD, 25 mg QD Fed, Day 1, N=6, mean, read-out: AUC0-24): 592 ng·h/mL
Cmax [1, 12]: 96.7 ng/mL
Tmax [1, 12]: 4.99 h
AUC(0-t) ([1]; human, plasma, oral, 25 mg, MAD, 25 mg QD Fed, Day 10, N=6, mean, read-out: AUC0-24): 1720 ng·h/mL
AUC(0-t) ([1]; human, plasma, oral, 25 mg, MAD, 25 mg QD Fed, Day 10, N=6, mean, read-out: AUC0-t): 8010 ng·h/mL
Cmax [1, 13]: 45.8 ± 14.3 ng/mL
Tmax [1, 13]: 4.51 ± 1.22 h
AUC(0-t) ([1]; human, plasma, oral, 25 mg, SAD, 25 mg fed standard breakfast, N=6, Mean ± SD, read-out: AUC0-24): 482 ± 130 ng·h/mL
AUC(0-t) ([1]; human, plasma, oral, 25 mg, SAD, 25 mg fed, N=6, tLast 146 h, Mean ± SD, read-out: AUC0-t): 1470 ± 270 ng·h/mL
Cmax [1, 14]: 35.5 ± 33.5 ng/mL
Tmax [1, 14]: 3.17 ± 1.48 h
AUC(0-t) ([1]; human, plasma, oral, 30 mg, SAD, 30 mg fasted, N=6, Mean ± SD, read-out: AUC0-24): 369 ± 219 ng·h/mL
AUC(0-t) ([1]; human, plasma, oral, 30 mg, SAD, 30 mg fasted, N=6, tLast 72 h, Mean ± SD, read-out: AUC0-t): 837 ± 280 ng·h/mL
half-life at 10 days ([1]; human, plasma, oral, MAD, 15 mg Fed, Day 10, N=6, mean): 239 h
half-life at 7 days ([1]; human, plasma, oral, MAD, 15 mg QD Fasted, Day 7, N=6, mean): 167 h
half-life at 10 days ([1]; human, plasma, oral, MAD, 25 mg QD Fed, Day 10, N=6, mean): 218 h
half-life ([1]; human, plasma, oral, SAD, 5 mg fasted, N=3, Mean ± SD, read-out: T1/2 (converted)): 49.2 ± 31.1 h
half-life ([1]; human, plasma, oral, SAD, 15 mg fasted, N=3, Mean ± SD, read-out: T1/2 (converted)): 41.9 ± 31.1 h
half-life ([1]; human, plasma, oral, SAD, 20 mg fasted, N=6, Mean ± SD, read-out: T1/2 (converted)): 48.9 ± 14.7 h
half-life ([1]; human, plasma, oral, SAD, 25 mg fed standard breakfast, N=6, Mean ± SD, read-out: T1/2 (converted)): 97.2 ± 18 h
half-life ([1]; human, plasma, oral, SAD, 30 mg fasted, N=6, Mean ± SD, read-out: T1/2 (converted)): 63.4 ± 28.2 h
half-life ([1]; human, plasma, oral, immediate release formulation, read-out: effective half-life): > 24 h
dose proportionality of exposure ([1]; multiple doses, fed state): exposure increased in proportion to dose
apparent steady state achieved ([1]; multiple doses, 90% CI of successive day's exposure ratio within 0.8-1.25): 6 to 9 days
peak to trough ratio ([1]; once a day dosing): low
attainment of steady state ([1]; once per day dosing, without titration): 1 week
RMT ([2]; 20 mg single dose): significant increase in RMT
RMT increase, mean±SEM ([2]; 20 mg, 6 h): 4.9±0.7%
effect on RMT ([2]; 20 mg, 6 h post-dose): > 4%
Resting Motor Threshold, post-dose change from baseline [2, 15]: 3 % MSO (4×) and 1 % MSO (4×) and 0 % MSO (7×) and 2 % MSO (3×) and 6 % MSO
Resting Motor Threshold, post-dose change from baseline [2, 16]: 7 % MSO (2×) and 1 % MSO (4×) and 0 % MSO (4×) and 6 % MSO (2×) and 3 % MSO (3×) and 5 % MSO and 10 % MSO and 2 % MSO (2×) and 4 % MSO
Resting Motor Threshold, post-dose change from baseline [2, 17]: 8 % MSO (2×) and 4 % MSO (3×) and 6 % MSO (2×) and 10 % MSO and 1 % MSO (2×) and 0 % MSO and 7 % MSO (3×) and 3 % MSO (2×)
Resting Motor Threshold, post-dose change from baseline (Mean) [2, 15]: 1.5 % MSO
Resting Motor Threshold, post-dose change from baseline (Mean) [2, 16]: 3.1 % MSO
Resting Motor Threshold, post-dose change from baseline (Mean) [2, 17]: 4.9 % MSO
RMT compared to time matched placebo ([2]; single 20 mg dose, 2, 4, and 6 h post-dose): increased RMT from baseline
AMT ([3]; 20 mg single dose): increased
change from baseline in AMT vs placebo ([3]; 20 mg, 6 h post-dose, p<0.01): significantly different from placebo
Active Motor Threshold, post-dose change from baseline ([3]; 2 h post-dose): 2 % MSO (3×) and 4 % MSO and 0 % MSO (9×) and 3 % MSO and 1 % MSO (5×)
Active Motor Threshold, post-dose change from baseline ([3]; 4 h post-dose): 2 % MSO (4×) and 4 % MSO and 0 % MSO (9×) and 3 % MSO (4×) and 1 % MSO (2×)
Active Motor Threshold, post-dose change from baseline ([3]; 6 h post-dose): 0 % MSO (4×) and 6 % MSO and 1 % MSO (3×) and 2 % MSO (2×) and 3 % MSO (5×) and 4 % MSO
Active Motor Threshold, post-dose change from baseline (Mean) ([3]; 2 h post-dose): 0.9 % MSO
Active Motor Threshold, post-dose change from baseline (Mean) ([3]; 4 h post-dose): 1.3 % MSO
Active Motor Threshold, post-dose change from baseline (Mean) ([3]; 6 h post-dose): 2.0 % MSO

Source: patent US11135214B2, “Methods for enhancing the bio availability and exposure of a voltage-gated potassium channel opener” (priority 2018, dated 2021)
